Reference: ChEMBL document CHEMBL1159002, “Westiellamide, a bistratamide-related cyclic peptide from the blue-green alga Westiellopsis prolifica” (J Nat Prod, 1992)
Active and inactive are the calls of the source. The rule behind the calls is not given here.

Legend:
Assay type in all cases: functional, cell-based
L1210 = experiment: Cytotoxicity against mouse L1210 cells by agar disk diffusion assay
KB = experiment: Cytotoxicity against human KB cells at 2 ug/ml
LoVo = experiment: Cytotoxicity against human LoVo cells at 2 ug/ml

CC(C)[C@@H]1NC(=O)[C@H]2N=C(O[C@@H]2C)[C@H](C(C)C)NC(=O)[C@H]2N=C(O[C@@H]2C)[C@H](C(C)C)NC(=O)[C@H]2N=C1O[C@@H]2C
Activity (L1210): inactive
Activity (KB): Active
Activity (LoVo): Active
